# Measurements published in PMC9529548 (Computational and Structural Biotechnology Journal, 2022).
# Tested on: T1, E. coli transhydrogenase (PntA (α) and PntB (β))
# T1 construct: full-length wild-type holoenzyme from E. coli membranes, DDM-solubilised, Ni-NTA (tag not described) and SEC; dimer of two identical protomers (alpha2beta2)
# Experiment: spectrophotometric reduction of APAD+ by NADPH, […] nm
# Type: biochemical, Escherichia coli
# Settings: 100 uM APAD+, 100 uM NADPH, 25 mM HEPES pH 7.5, 50 mM KCl, asolectin, 0.1% DDM, 37 °C; reverse reaction
# T1 sequence (P0AB67 whole entry): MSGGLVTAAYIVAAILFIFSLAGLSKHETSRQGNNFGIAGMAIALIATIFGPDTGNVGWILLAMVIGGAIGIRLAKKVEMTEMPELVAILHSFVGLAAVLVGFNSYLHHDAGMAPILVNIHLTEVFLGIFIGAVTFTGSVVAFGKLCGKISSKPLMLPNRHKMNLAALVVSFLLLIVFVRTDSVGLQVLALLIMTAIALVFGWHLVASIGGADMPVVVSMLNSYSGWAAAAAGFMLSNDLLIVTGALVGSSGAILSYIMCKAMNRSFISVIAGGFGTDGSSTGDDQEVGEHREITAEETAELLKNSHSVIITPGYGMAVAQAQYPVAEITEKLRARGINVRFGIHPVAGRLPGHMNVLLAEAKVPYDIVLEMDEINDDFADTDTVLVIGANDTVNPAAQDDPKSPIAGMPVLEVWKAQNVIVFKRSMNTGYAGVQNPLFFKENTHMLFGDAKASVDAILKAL
# T1 sequence (P07001 whole entry, further chain): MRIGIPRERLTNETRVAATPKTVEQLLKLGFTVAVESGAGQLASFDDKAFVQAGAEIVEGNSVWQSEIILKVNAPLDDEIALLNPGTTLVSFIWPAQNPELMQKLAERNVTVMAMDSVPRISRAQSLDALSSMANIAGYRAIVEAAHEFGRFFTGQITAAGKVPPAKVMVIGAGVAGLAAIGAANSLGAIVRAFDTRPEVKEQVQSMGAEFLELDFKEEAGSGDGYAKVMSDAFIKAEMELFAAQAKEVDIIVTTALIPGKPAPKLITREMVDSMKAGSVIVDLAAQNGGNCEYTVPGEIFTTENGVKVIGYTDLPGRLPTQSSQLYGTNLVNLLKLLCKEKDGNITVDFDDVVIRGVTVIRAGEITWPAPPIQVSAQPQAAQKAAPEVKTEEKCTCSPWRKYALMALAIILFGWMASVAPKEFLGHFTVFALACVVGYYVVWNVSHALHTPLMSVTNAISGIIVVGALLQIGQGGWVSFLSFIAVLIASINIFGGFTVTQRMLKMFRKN
smiles,measurement,value
CC(=O)c1ccc[n+]([C@@H]2O[C@H](COP(=O)(O)OP(=O)(O)OC[C@H]3O[C@@H](n4cnc5c(N)ncnc54)[C@H](O)[C@@H]3O)[C@@H](O)[C@H]2O)c1 [APAD^+],"spectrophotometric reduction of APAD+ by NADPH, 375 nm",reverse transhydrogenase activity of the protein in DDM was measured using the reduction of APAD^+
